Experimental data: the supplement of paper PMC10290057
Counter-ions that a name gives are not always drawn.

System: HCT116
Assay: efficacy (fitted maximal change in viability relative to DMSO control); higher = less cytotoxic (negative = loss of viability)
Conditions: 48 h
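Also: Luminescence-based viability readout, five doses per compound, normalized against on-plate DMSO and empty-well controls, followed by dose-response curve fitting for every drug.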

O=C([O-])C(O)Cc1ccc(O)c(O)c1 (stereo unspecified) [Sodium Danshensu]
efficacy: -9.88%

CN(C)NC(=O)CCC(=O)O [Daminozide]
efficacy: -8.97%

O=C(c1ccccc1)c1ccc2n1CCC2C(=O)O (stereo unspecified) [Ketorolac]
efficacy: -7.25%

Nc1nc(OC(c2ccc(-c3cccc(F)c3)cc2)C(F)(F)F)cc(-c2ccc(C[C@H](N)C(=O)O)cc2)n1 (stereo partly specified)
efficacy: -21.2%

C[C@@H](c1ncncc1F)[C@](O)(Cn1cncn1)c1ccc(F)cc1F [Voriconazole]
efficacy: -12.1%

Cc1ccc(/C=N/NC(=O)c2ccccc2Oc2ccccc2)o1
efficacy: -6.56%

CC[C@H](C)C(=O)O[C@H]1C[C@@H](C)\C=C2\C=C/[C@H](C)[C@H](CC[C@@H]3C[C@@H](O)CC(=O)O3)[C@@H]12 [Lovastatin]
efficacy: -14.4%

N=C(N)NC(=O)c1nc(Cl)c(N)nc1N [Amiloride hydrochloride]
efficacy: -10.8%

CCCc1nc2c(C)cc(-c3nc4ccccc4n3C)cc2n1Cc1ccc(-c2ccccc2C(=O)O)cc1 [Telmisartan]
efficacy: -20.9%

CCC(CCCC)COC(=O)C(\C#N)=C(\c1ccccc1)c2ccccc2 (stereo unspecified) [Octocrylene]
efficacy: -31.5%

CC(C)(C)C(=O)N1\N=C/C[C@H]1C2=CC=CC=C2 [GSK-963]
efficacy: -9.61%

O=C(O)Cn1nnc(-c2cc(N3CCC(Oc4cc(F)ccc4Br)CC3)no2)n1 [MK-8245]
efficacy: -19.9%

CC1(C)CCC(=C(\C1)C2=CC=C(Cl)C=C2)/CN3CCN(CC3)C4=CC(=C(C=C4)C(=O)N[S+]([O-])(=O)C5=CC=C(NCC6CCOCC6)C(=C5)[N+]([O-])=O)OC7=CN=C8[NH]C=CC8=C7 [Venetoclax (ABT-199)]
efficacy: -73.3%

C=CC(=O)N1C[C@H](Nc2ncnc3[nH]ccc23)CC[C@@H]1C
efficacy: -26.7%

NC(=O)c1ccc(-c2nc(-c3ccc4c(c3)OCCO4)c(-c3ccccn3)[nH]2)cc1 [D-4476]
efficacy: -84.9%

CNC(=O)c1ccc(-c2cnc3ncc(Cc4ccc5ncccc5c4)n3n2)cc1F [Capmatinib]
efficacy: -28.8%

CCCCOc1nc(N)c2c(n1)N(Cc1cccc(CN3CCCC3)c1)CC(=O)N2 [Vesatolimod]
efficacy: -47.6%

CN[C@@H]1Cc2cccc3[nH]c(=O)n(c23)C1 [Sumanirole maleate]
efficacy: -12.4%

CC(C)C[C@H](CN)CC(=O)O [Pregabalin]
efficacy: -8.5%

OC(COC1=C2C(=O)\C=C(/OC2=CC=C1)C([O-])=O)COC3=C4C(=O)\C=C(/OC4=CC=C3)C([O-])=O [Sodium cromoglycate]
efficacy: -6.55%

CC(COc1ccccc1)N(CCCl)Cc1ccccc1 (stereo unspecified) [Phenoxybenzamine hydrochloride]
efficacy: -19.8%

C[C@]12COC(=O)C[C@@H]1CC[C@@H]1[C@@H]2CC[C@@]2(C)[C@H]1CC[C@]2(C)O [Oxandrolone]
efficacy: -21.6%

O=C(c1ccc(C(=O)N2CCC(N3CCCC3)CC2)c(Nc2ccccc2)c1)N1CCC(N2CCCC2)CC1 [UNC-1215]
efficacy: -10.4%

COc1ccc(-c2cnc3c(-c4cccc5ncccc45)cnn3c2)cc1 [ML-347]
efficacy: 9.54%

CC(C)(O)[C@H]1CC[C@@](C)([C@H]2[C@@H](O)C[C@@]3(C)[C@@H]4C[C@H](O[C@@H]5O[C@H](CO)[C@@H](O)[C@H](O)[C@H]5O)[C@H]5C(C)(C)[C@@H](O[C@@H]6OC[C@@H](O)[C@H](O)[C@H]6O)CC[C@@]56C[C@@]46CC[C@]23C)O1 [Astragaloside A]
efficacy: 6.04%

CC(=O)NCCC(=O)N[C@@H](CCC(N)=O)C(=O)N[C@@H](CO)C(=O)N[C@@H](CCC(N)=O)C(=O)N[C@@H](CCC(N)=O)C(=O)N[C@H](C(=O)N[C@@H](Cc1ccccc1)C(=O)N[C@]1(C)CCCCCC/C=C\CCC[C@@](C)(C(=O)N[C@@H](CCC(N)=O)C(=O)N[C@@H](CC(N)=O)C(N)=O)NC(=O)[C@H](CC(C)C)NC(=O)[C@H](CC(C)C)NC(=O)[C@@H](CCCNC(=N)N)NC(=O)[C@H](Cc2c[nH]c3ccccc23)NC(=O)[C@H](CC(C)C)NC(=O)[C@H](CC(N)=O)NC1=O)[C@H](C)O [Ac-SAH-p53-8]
efficacy: -6.69%
